Assay results published in PubChem BioAssay AID256 (DTP/NCI, 2004).
Where “and” joins values, the source holds several entries; their conditions need not be identical. Equal entries are not always repeated. Inconclusive results and toxic doses are left out. How the source made its calls: active means survival T/C of 150% or more; inactive means T/C below 125% in these data.

System: CD2F1 mice, L1210 leukemia ip, survival T/C
Test: NCI In Vivo Anticancer Drug Screen. Data for tumor model L1210 Leukemia (intraperitoneal) in CD2F1 (CDF1) mice
Details: higher = longer survival
Summary of the method: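 Compound-dosed mice with transplantable tumor versus matched vehicle controls; endpoint ratio T/C reported.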

[1] = endpoint: mean survival time, dose: 50.0 mg/kg/injection, schedule: Q01DX009 (ip), vehicle: saline with Tween-80
[2] = endpoint: mean survival time, dose: 100.0 mg/kg/injection, schedule: Q01DX009 (ip), vehicle: saline with Tween-80
[3] = endpoint: mean survival time, dose: 100.0 mg/kg/injection, schedule: Q04DX003 (ip), vehicle: saline
[4] = endpoint: mean survival time, dose: 200.0 mg/kg/injection, schedule: Q01DX009 (ip), vehicle: saline with Tween-80
[5] = endpoint: mean survival time, dose: 200.0 mg/kg/injection, schedule: Q04DX003 (ip), vehicle: saline
[6] = endpoint: mean survival time, dose: 400.0 mg/kg/injection, schedule: Q01DX009 (ip), vehicle: saline with Tween-80
[7] = endpoint: mean survival time, dose: 400.0 mg/kg/injection, schedule: Q04DX003 (ip), vehicle: saline
[8] = endpoint: mean survival time, dose: 50.0 mg/kg/injection, schedule: Q01DX009 (ip), vehicle: saline
[9] = endpoint: mean survival time, dose: 100.0 mg/kg/injection, schedule: Q01DX009 (ip), vehicle: saline
[10] = endpoint: mean survival time, dose: 100.0 mg/kg/injection, schedule: Q01DX001 (ip), vehicle: saline with Tween-80
[11] = endpoint: mean survival time, dose: 200.0 mg/kg/injection, schedule: Q01DX001 (ip), vehicle: saline with Tween-80
[12] = endpoint: mean survival time, dose: 25.0 mg/kg/injection, schedule: Q01DX009 (ip), vehicle: saline with Tween-80
[13] = endpoint: mean survival time, dose: 100.0 mg/kg/injection, schedule: Q04DX003 (ip), vehicle: saline with Tween-80
[14] = endpoint: mean survival time, dose: 200.0 mg/kg/injection, schedule: Q04DX003 (ip), vehicle: saline with Tween-80
[15] = endpoint: mean survival time, dose: 400.0 mg/kg/injection, schedule: Q04DX003 (ip), vehicle: saline with Tween-80

Measured: T/C

CC(CN)OS(=O)(=O)O (stereo unspecified)
inactive: [1] 100 % of control | endpoint: mean survival time, dose: 50.0 mg/kg/injection, schedule: Q04DX003 (ip), vehicle: saline 103 % of control | [2] 105 % of control | [3] 106 % of control | [4] 101 % of control | [5] 97 % of control | [6] 101 % of control | [7] 105 % of control

Cc1ccc(Sc2cccc3c(C)c4cccc5c4c(c23)C[S+]5c2ccc(C)cc2)cc1 (stereo unspecified)
inactive: endpoint: mean survival time, dose: 6.25 mg/kg/injection, schedule: Q04DX003 (ip), vehicle: saline with Tween-80 98 % of control

CCN(CC)CCNC(=O)C(O)(c1ccccc1)c1ccccc1
inactive: [8] 98 % of control | [9] 103 % of control

C/C=C/C(Cc1ccc2ccccc2c1)(C(=O)OCC)C(=O)OCC
inactive: endpoint: mean survival time, dose: 50.0 mg/kg/injection, schedule: Q01DX009 (ip), vehicle: Klucel (hydroxypropylcellulose) (HPC) 91 % of control | endpoint: mean survival time, dose: 100.0 mg/kg/injection, schedule: Q01DX009 (ip), vehicle: Klucel (hydroxypropylcellulose) (HPC) 88 % of control | endpoint: mean survival time, dose: 200.0 mg/kg/injection, schedule: Q01DX009 (ip), vehicle: Klucel (hydroxypropylcellulose) (HPC) 94 % of control

CC(C)(C(=O)c1ccccc1)C(=O)c1ccccc1
inactive: endpoint: mean survival time, dose: 50.0 mg/kg/injection, schedule: Q01DX001 (ip), vehicle: saline with Tween-80 104 % of control | [10] 102 % of control | [2] 100 % of control | [11] 100 % of control | [4] 94 % of control | [6] 98 % of control

C=C1N(C)c2ccccc2C1(C)C
inactive: endpoint: mean survival time, dose: 0.78 mg/kg/injection, schedule: Q01DX009 (ip), vehicle: saline with Tween-80 104 % of control | endpoint: mean survival time, dose: 1.56 mg/kg/injection, schedule: Q01DX009 (ip), vehicle: saline with Tween-80 101 % of control | endpoint: mean survival time, dose: 3.12 mg/kg/injection, schedule: Q01DX009 (ip), vehicle: saline with Tween-80 97 % of control | endpoint: mean survival time, dose: 6.25 mg/kg/injection, schedule: Q01DX009 (ip), vehicle: saline with Tween-80 98 % of control | endpoint: mean survival time, dose: 12.5 mg/kg/injection, schedule: Q01DX009 (ip), vehicle: saline with Tween-80 92 % of control and 100 % of control | [12] 94 % of control | [1] 94 % of control

COc1cc(Cl)ccc1NC(=O)Oc1ccc([N+](=O)[O-])cc1
inactive: [1] 96 % of control | [2] 96 % of control | [4] 100 % of control

CC1(C)N=C(N)N=C(N)N1c1cccc(CC(=O)Nc2ccc(S(=O)(=O)F)cc2)c1
inactive: [8] 120 % of control | [9] 117 % of control | endpoint: mean survival time, dose: 300.0 mg/kg/injection, schedule: Q01DX009 (ip), vehicle: saline 120 % of control

Cc1ccc([N+](=O)[O-])cc1NC(=O)Oc1ccc(Cl)cc1Cl
inactive: [1] 102 % of control | [2] 103 % of control

CCCCOS(=O)(=O)c1ccc(Cl)c([N+](=O)[O-])c1
inactive: [12] 102 % of control | [1] 100 % of control | [2] 91 % of control | [13] 96 % of control | [14] 98 % of control | [15] 91 % of control

CCCCCCNC(=O)Nc1cccc(Cl)c1C
inactive: [2] 94 % of control | [13] 91 % of control | [4] 94 % of control | [6] 103 % of control | [15] 92 % of control

NC(CSC1(c2ccccc2)c2ccccc2-c2ccccc21)C(=O)O (stereo unspecified)
inactive: endpoint: mean survival time, dose: 25.0 mg/kg/injection, schedule: Q01DX009 (ip), vehicle: saline 96 % of control | [8] 102 % of control | [9] 100 % of control | endpoint: mean survival time, dose: 200.0 mg/kg/injection, schedule: Q01DX009 (ip), vehicle: saline 100 % of control | endpoint: mean survival time, dose: 400.0 mg/kg/injection, schedule: Q01DX009 (ip), vehicle: saline 110 % of control

CCC(C)NCCO (stereo unspecified)
inactive: endpoint: mean survival time, dose: 75.0 mg/kg/injection, schedule: Q01DX001 (ip), vehicle: saline 96 % of control | endpoint: mean survival time, dose: 150.0 mg/kg/injection, schedule: Q01DX001 (ip), vehicle: saline 104 % of control | endpoint: mean survival time, dose: 300.0 mg/kg/injection, schedule: Q01DX001 (ip), vehicle: saline 104 % of control

O=C(NCc1ccco1)C1COc2ccccc2O1 (stereo unspecified)
inactive: endpoint: median survival time, dose: 25.0 mg/kg/injection, schedule: Q01DX009 (ip), vehicle: Klucel (hydroxypropylcellulose) (HPC) 103 % of control | endpoint: median survival time, dose: 50.0 mg/kg/injection, schedule: Q01DX009 (ip), vehicle: Klucel (hydroxypropylcellulose) (HPC) 101 % of control | endpoint: median survival time, dose: 100.0 mg/kg/injection, schedule: Q01DX009 (ip), vehicle: Klucel (hydroxypropylcellulose) (HPC) 103 % of control

C/C(=N/Nc1ccccc1)c1cccs1
inactive: [10] 102 % of control | [11] 102 % of control | endpoint: mean survival time, dose: 400.0 mg/kg/injection, schedule: Q01DX001 (ip), vehicle: saline with Tween-80 94 % of control

CCCCCCCCCCCCCCCCOc1ccc(-c2cc(Cl)c3cc(S(=O)(=O)F)ccc3n2)cc1S(=O)(=O)F
inactive: [2] 97 % of control | [4] 98 % of control | [14] 87 % of control | [15] 95 % of control

CCOC(=O)/C=C/C1=CCCCC1
inactive: [1] 101 % of control | [2] 96 % of control | [4] 108 % of control

CCCCCCCCCCCCCCCCCCCCc1ccccc1
inactive: endpoint: mean survival time, dose: 100.0 mg/kg/injection, schedule: Q04DX002 (ip), vehicle: Klucel (hydroxypropylcellulose) (HPC) 97 % of control | endpoint: mean survival time, dose: 200.0 mg/kg/injection, schedule: Q04DX002 (ip), vehicle: Klucel (hydroxypropylcellulose) (HPC) 94 % of control | endpoint: mean survival time, dose: 400.0 mg/kg/injection, schedule: Q04DX002 (ip), vehicle: Klucel (hydroxypropylcellulose) (HPC) 90 % of control

O=C(O)CCCCc1ccc([N+](=O)[O-])cc1
inactive: endpoint: mean survival time, dose: 100.0 mg/kg/injection, schedule: Q04DX002 (ip), vehicle: other 105 % of control | endpoint: mean survival time, dose: 200.0 mg/kg/injection, schedule: Q04DX002 (ip), vehicle: other 102 % of control | endpoint: mean survival time, dose: 400.0 mg/kg/injection, schedule: Q04DX002 (ip), vehicle: other 97 % of control

NC(CS(=O)(=O)O)c1ccccc1 (stereo unspecified)
inactive: endpoint: mean survival time, dose: 100.0 mg/kg/injection, schedule: Q01DX001 (ip), vehicle: saline 110 % of control | [3] 96 % of control | endpoint: mean survival time, dose: 200.0 mg/kg/injection, schedule: Q01DX001 (ip), vehicle: saline 110 % of control | [5] 98 % of control | endpoint: mean survival time, dose: 400.0 mg/kg/injection, schedule: Q01DX001 (ip), vehicle: saline 110 % of control | [7] 97 % of control

O=c1cc(CO)[nH]c(=O)[nH]1
inactive: endpoint: mean survival time, dose: 12.5 mg/kg/injection, schedule: Q01DX009 (ip), vehicle: other 91 % of control | endpoint: mean survival time, dose: 25.0 mg/kg/injection, schedule: Q01DX009 (ip), vehicle: other 94 % of control | endpoint: mean survival time, dose: 50.0 mg/kg/injection, schedule: Q01DX009 (ip), vehicle: other 91 % of control | endpoint: mean survival time, dose: 100.0 mg/kg/injection, schedule: Q01DX009 (ip), vehicle: other 92 % of control | endpoint: mean survival time, dose: 200.0 mg/kg/injection, schedule: Q01DX009 (ip), vehicle: other 97 % of control

O=C(NC1CCc2ccccc21)c1ccccc1 (stereo unspecified)
inactive: [13] 96 % of control | [14] 94 % of control | [6] 87 % of control | [15] 97 % of control

Cc1ncc(COP(=O)(O)O)c(C=NC(C)C(=O)O)c1O.O.[Cu] (stereo unspecified)
inactive: endpoint: mean survival time, dose: 6.25 mg/kg/injection, schedule: Q01DX001 (ip), vehicle: saline with Tween-80 95 % of control | endpoint: mean survival time, dose: 12.5 mg/kg/injection, schedule: Q01DX001 (ip), vehicle: saline with Tween-80 92 % of control | endpoint: mean survival time, dose: 25.0 mg/kg/injection, schedule: Q01DX001 (ip), vehicle: saline with Tween-80 103 % of control
